± gives the standard deviation of the averaged measurements.
Key:
Test in all cases: level (log10 ratio to DMSO vehicle control); higher = higher biomarker level / cell amount than vehicle control
Perfluoro-1-iodohexane = compound: FC(F)(F)C(F)(F)C(F)(F)C(F)(F)C(F)(F)C(F)(F)I [Perfluoro-1-iodohexane]; settings: in DMSO
Protocol: (§1)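 BioMAP Diversity Plus panel of 12 human primary cell co-culture systems (3C, 4H, LPS, SAg, BT, BF4T, BE3C, CASM3C, HDF3CGF, KF3CT, MyoF, Mphg). Compounds were added 1 h before stimulation and left for 24 h (MyoF 48 h; BT 72 h for soluble read-outs or 6 d for IgG). Biomarkers were read by ELISA, cytotoxicity by SRB, PBMC viability and proliferation by Alamar Blue. Each well value was divided by the mean of 8 DMSO control wells on the same plate and log10 transformed; duplicate blinded samples were tested at 4 concentrations.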

[1] = compound: O=C(O)C(F)(F)C(F)(F)C(F)(F)C(F)(F)C(F)(F)C(F)(F)C(F)(F)C(F)F [9-H-Perfluorononanoic acid]; settings: in DMSO
Protocol: as §1

Perfluoroheptanoic acid = compound: O=C(O)C(F)(F)C(F)(F)C(F)(F)C(F)(F)C(F)(F)C(F)(F)F [Perfluoroheptanoic acid]; settings: in DMSO
Protocol: as §1

[2] = compound: FC(F)(F)C(F)(C(F)(F)F)C(F)(F)C(F)(F)CC1CO1 [3-(Perfluoro-3-methylbutyl)-1,2-propenoxide]; settings: in DMSO
Protocol: as §1

[3] = compound: O=C(O)C(F)(F)C(F)(F)C(F)F [4H-Perfluorobutanoic acid]; settings: in DMSO
Protocol: as §1

[4] = compound: OCCCC(F)(F)C(F)(F)C(F)(F)C(F)(F)C(F)(F)C(F)(F)C(F)(F)F [7:3 Fluorotelomer alcohol]; settings: 6700 nM; in DMSO
Protocol: as §1

[5] = compound: FC(F)(F)C(F)(F)C(F)(F)C(F)(F)C(F)(F)C(F)(F)C(F)(F)C(F)(F)CCS [2-(Perfluorooctyl)ethanthiol]; settings: in DMSO
Protocol: as §1

Perfluorobutanoic acid = compound: O=C(O)C(F)(F)C(F)(F)C(F)(F)F [Perfluorobutanoic acid]; settings: in DMSO
Protocol: as §1

| Test System | level (log10) (Perfluoro-1-iodohexane; 6700 nM) | level (log10) (Perfluoro-1-iodohexane; 20000 nM) | level (log10) (Perfluoro-1-iodohexane; 60000 nM) | level (log10) ([1]; 6700 nM) | level (log10) ([1]; 20000 nM) | level (log10) ([1]; 60000 nM) | level (log10) (Perfluoroheptanoic acid; 6700 nM) | level (log10) (Perfluoroheptanoic acid; 20000 nM) | level (log10) (Perfluoroheptanoic acid; 60000 nM) | level (log10) ([2]; 6700 nM) | level (log10) ([2]; 20000 nM) | level (log10) ([3]; 6700 nM) | level (log10) ([3]; 20000 nM) | level (log10) ([3]; 60000 nM) | level (log10) [4] | level (log10) ([5]; 6700 nM) | level (log10) ([5]; 20000 nM) | level (log10) (Perfluorobutanoic acid; 6700 nM) | level (log10) (Perfluorobutanoic acid; 20000 nM) | level (log10) (Perfluorobutanoic acid; 60000 nM) |
| --- | --- | --- | --- | --- | --- | --- | --- | --- | --- | --- | --- | --- | --- | --- | --- | --- | --- | --- | --- | --- |
| SAg:CXCL8/IL-8 | 0.0365 ± 0.016 | -0.004 ± 0.0071 | 0.002 ± 0.059 | 0.01 ± 0.018 | 0.0005 ± 0.0064 | 0.0715 ± 0.013 | 0.008 ± 0.011 | 0.0115 ± 0.0078 | 0.0715 ± 0.043 | 0.0035 ± 0.0021 | 0.013 ± 0.041 | -0.0325 ± 0.03 | -0.0065 ± 0.022 | 0.025 ± 0.098 | -0.0085 ± 0.025 | -0.0215 ± 0.032 | 0.027 ± 0.082 | -0.0025 ± 0.0092 | -0.005 ± 0.0085 | 0.0335 ± 0.028 |
| 4H:CCL26/Eotaxin-3 | 0.014 ± 0.013 | 0.016 ± 0.017 | 0.016 ± 0.021 | -0.002 ± 0.0085 | -0.0035 ± 0.013 | -0.0155 ± 0.0064 | 0.0055 ± 0.0064 | 0.0045 ± 0.0092 | -0.015 ± 0.0085 | -0.002 ± 0.018 | 0.013 ± 0.013 | -0.0165 ± 0.012 | -0.008 ± 0.011 | 0.008 ± 0.0085 | 0.005 ± 0.014 | 0.008 ± 0.017 | -0.0145 ± 0.0064 | -0.0135 ± 0.016 | -0.007 ± 0.024 | 0.015 ± 0.018 |
| BF4T:CCL26/Eotaxin-3 | 0.0255 ± 0.0035 | 0.0135 ± 0.015 | -0.0145 ± 0.059 | -0.174 ± 0.028 | -0.198 ± 0.049 | -0.147 ± 0.0071 | 0.0145 ± 0.019 | -0.0055 ± 0.013 | -0.031 ± 0.081 | 0.012 ± 0.028 | -0.0095 ± 0.016 | -0.035 ± 0.011 | 0.0085 ± 0.0035 | -0.0115 ± 0.063 | -0.088 ± 0.17 | -0.0585 ± 0.04 | -0.037 ± 0.0099 | -0.0225 ± 0.042 | 0.0075 ± 0.0021 | 0.008 ± 0.028 |
| BT:B cell Proliferation | -0.011 ± 0.054 | -0.008 ± 0.011 | -0.0135 ± 0.025 | 0.0245 ± 0.0021 | 0.0495 ± 0.00071 | 0.108 ± 0.0028 | 0.018 ± 0.0085 | 0.0145 ± 0.033 | 0.061 ± 0.028 | -0.002 ± 0.025 | 0.017 ± 0.0099 | 0.016 ± 0.0099 | 0.0055 ± 0.019 | 0.0065 ± 0.036 | -0.011 ± 0.0042 | -0.007 ± 0.0057 | 0.038 ± 0.0042 | 0.0085 ± 0.00071 | -0.029 ± 0.014 | 0.002 ± 0.0042 |
| 4H:VEGFR2 | 0.0075 ± 0.0092 | 0.006 ± 0.02 | 0.004 ± 0.023 | 0.0105 ± 0.037 | 0.001 ± 0.027 | 0.051 ± 0.0099 | 0.016 ± 0.027 | 0.022 ± 0.013 | 0.012 ± 0.054 | -0.001 ± 0.014 | 0.0245 ± 0.026 | -0.0255 ± 0.015 | -0.005 ± 0.042 | 0.012 ± 0.05 | 0.014 ± 0.017 | -0.0145 ± 0.026 | 0.0405 ± 0.074 | -0.025 ± 0.021 | -0.0105 ± 0.005 | 0.004 ± 0.013 |
| BE3C:HLA-DR | -0.003 ± 0.0028 | 0.003 ± 0.0057 | -0.009 ± 0.0028 | -0.102 ± 0.042 | -0.14 ± 0.052 | -0.15 ± 0.0014 | -0.009 ± 0.0014 | -0.004 ± 0.0014 | 0.002 ± 0.027 | -0.0075 ± 0.005 | -0.003 ± 0.0085 | -0.023 | -0.022 ± 0.0085 | -0.0005 ± 0.028 | 0.0045 ± 0.029 | -0.0075 ± 0.0035 | -0.0135 ± 0.0092 | -0.0085 ± 0.018 | 0.007 ± 0.0014 | -0.027 ± 0.013 |
| 4H:CCL2/MCP-1 | 0.0085 ± 0.015 | -0.008 ± 0.0028 | 0.0145 ± 0.029 | -0.028 ± 0.013 | -0.059 ± 0.017 | -0.0405 ± 0.081 | -0.0115 ± 0.0064 | -0.0165 ± 0.013 | 0.025 ± 0.024 | -0.038 ± 0.013 | 0.001 ± 0.042 | -0.066 ± 0.047 | -0.0555 ± 0.029 | -0.0005 ± 0.028 | 0.025 ± 0.0099 | -0.02 ± 0.017 | 0.0395 ± 0.035 | -0.0185 ± 0.012 | -0.05 ± 0.028 | 0.0005 ± 0.079 |
| BF4T:tPA | 0.0015 ± 0.005 | -0.0065 ± 0.018 | 0.036 ± 0.047 | -0.094 ± 0.014 | -0.128 ± 0.012 | -0.122 ± 0.019 | -0.0125 ± 0.005 | -0.0145 ± 0.015 | 0.004 ± 0.073 | 0.0135 ± 0.00071 | 0.0135 ± 0.0021 | -0.002 ± 0.037 | 0.003 ± 0.028 | 0.0475 ± 0.022 | 0.0105 ± 0.015 | 0.006 ± 0.034 | -0.0195 ± 0.022 | 0.0025 ± 0.005 | 0.0105 ± 0.011 | 0.011 ± 0.013 |
| 4H:CD62P/P-selectin | 0.034 ± 0.028 | -0.012 ± 0.11 | 0.0625 ± 0.14 | 0.033 ± 0.078 | 0.0825 ± 0.0035 | 0.149 ± 0.014 | 0.007 ± 0.018 | 0.0035 ± 0.016 | 0.0605 ± 0.05 | -0.0085 ± 0.0064 | 0.0305 ± 0.012 | -0.0185 ± 0.042 | 0.0005 ± 0.057 | -0.011 ± 0.04 | 0.04 ± 0.027 | 0.019 ± 0.0071 | -0.017 | 0.086 ± 0.076 | 0.0575 ± 0.0035 | 0.09 ± 0.054 |
| BE3C:EGFR | 0.0095 ± 0.00071 | -0.0055 ± 0.0021 | 0.0285 ± 0.013 | -0.028 ± 0.0099 | -0.022 ± 0.021 | -0.0425 ± 0.023 | -0.0065 ± 0.0078 | 0.0045 ± 0.0021 | -0.0005 ± 0.033 | -0.01 ± 0.013 | -0.023 ± 0.013 | -0.0135 ± 0.011 | -0.0085 ± 0.0064 | 0.032 ± 0.025 | 0.0115 ± 0.015 | 0.025 ± 0.013 | 0.0035 ± 0.03 | 0.002 ± 0.0042 | 0.005 ± 0.0099 | -0.0035 ± 0.0035 |
| BF4T:SRB | -0.006 ± 0.0085 | -0.011 ± 0.011 | -0.0135 ± 0.016 | -0.018 ± 0.0085 | -0.018 ± 0.0071 | -0.016 ± 0.0014 | -0.0085 ± 0.00071 | -0.0115 ± 0.00071 | -0.0035 ± 0.018 | 0.0015 ± 0.0035 | -0.0035 ± 0.00071 | 0.0005 ± 0.0021 | -0.008 ± 0.0057 | -0.006 ± 0.0042 | -0.008 ± 0.017 | -0.01 ± 0.013 | -0.016 ± 0.0014 | -0.012 ± 0.0071 | -0.0055 ± 0.00071 | 0 ± 0.0042 |
| BT:sIL-2 | 0.0065 ± 0.052 | -0.0005 ± 0.1 | -0.0005 ± 0.098 | -0.0245 ± 0.057 | 0.006 ± 0.05 | 0.0195 ± 0.032 | -0.0105 ± 0.14 | 0.0035 ± 0.037 | -0.008 ± 0.075 | -0.0405 ± 0.042 | 0.071 ± 0.072 | 0.0065 ± 0.054 | -0.0275 ± 0.14 | -0.056 ± 0.017 | -0.037 ± 0.15 | 0.017 ± 0.016 | -0.0155 ± 0.071 | -0.011 ± 0.0028 | 0.0285 ± 0.066 | 0.0095 ± 0.042 |
| BF4T:PAI-I | -0.0095 ± 0.0035 | -0.02 ± 0.0042 | -0.006 ± 0.018 | -0.099 ± 0.0028 | -0.0915 ± 0.0021 | -0.114 ± 0.0099 | -0.0045 ± 0.019 | 0.0005 ± 0.025 | 0.0015 ± 0.028 | -0.0045 ± 0.013 | 0.0005 ± 0.016 | 0.0025 ± 0.013 | -0.01 ± 0.0042 | 0.0105 ± 0.035 | -0.0105 ± 0.005 | -0.0175 ± 0.0064 | -0.0255 ± 0.005 | -0.003 ± 0.0057 | -0.0115 ± 0.0064 | 0.0025 ± 0.023 |
| SAg:CD62E/E-Selectin | -0.009 ± 0.0014 | 0.0055 ± 0.019 | 0.0095 ± 0.044 | -0.015 ± 0.013 | -0.0075 ± 0.013 | 0.065 ± 0.031 | -0.025 ± 0.0085 | 0.011 | 0.008 ± 0.013 | -0.0195 ± 0.019 | -0.012 | -0.0205 ± 0.018 | -0.002 ± 0.0014 | 0.0175 ± 0.0078 | -0.0005 ± 0.00071 | -0.0115 ± 0.0064 | -0.0015 ± 0.022 | -0.026 ± 0.0042 | -0.024 ± 0.0057 | -0.024 ± 0.013 |

From the supplement of paper PMC10331698
